Assay results reported in the supplement of paper PMC10627819.

Tests used:
S. aureus Newman = test: Bliss interaction score (quartile over a dose matrix) (fitness difference); higher = more antagonism (negative = synergy)
Summary of the method: (§1)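 Fitness here means normalised growth, inferred for single drugs from the combination data. Growth was OD595 at entry into stationary phase, divided by the plate's robust no-drug mean and capped at 1. The Bliss score is observed minus expected fitness, with the expectation being the product, and its quartiles span technical, biological and donor/recipient replicates.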

B. subtilis 168 [1] = test: as above
Summary of the method: as §1

S. pneumoniae D39V [2] = test: as above
Summary of the method: as §1

S. aureus DSM 20231 = test: as above
Summary of the method: as §1

B. subtilis 168 [3] = test: fitness (endpoint OD595 vs no drug) (fraction); higher = more growth
Summary of the method: (§2)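 Fitness expresses the optical density reached at the stationary-phase transition as a fraction of the robust mean of no-drug control wells. It is capped at 1. Measurements were OD595 every 30 min for 14 h at 37 °C after inoculation of 384-well plates at OD595 0.01 (30 µl, or 55 µl for S. pneumoniae), minus the first reading.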

S. pneumoniae D39V [4] = test: as above
Summary of the method: as §2
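Throughout, for Bliss interaction score (quartile over a dose matrix): first quartile when negative (synergy) and third quartile when positive (antagonism).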
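Throughout, for fitness (endpoint OD595 vs no drug): OD595 on entry to stationary phase over no-drug wells; at most 1.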

C[C@@H]1O[C@@H]1P(=O)(O)O [Fosfomycin] + CN(C)C(=O)C(CCN1CCC(O)(c2ccc(Cl)cc2)CC1)(c1ccccc1)c1ccccc1 [Loperamide]
Conditions | Bliss interaction score
B. subtilis 168 [1] | 0.305
S. aureus DSM 20231 | 0.116
S. aureus Newman | -0.0773
S. pneumoniae D39V [2] | 0.0632

fitness
Conditions | first compound 1.25 µg/mL | first compound 1.562 µg/mL | first compound 2.5 µg/mL | first compound 3.124 µg/mL | first compound 5 µg/mL | first compound 6.248 µg/mL
B. subtilis 168 [3], partner 25 µg/mL | – | 0.743 | – | 0.625 | – | 0.534
B. subtilis 168 [3], partner 100 µg/mL | – | 0.0187 | – | 0.0366 | – | 0.011
S. pneumoniae D39V [4], partner 17.14 µg/mL | 0.957 | – | 0.952 | – | 0.722 | –
S. pneumoniae D39V [4], partner 20 µg/mL | ≥ 1 | – | 0.985 | – | 0.81 | –
S. pneumoniae D39V [4], partner 34.28 µg/mL | 0.954 | – | 0.961 | – | 0.74 | –
S. pneumoniae D39V [4], partner 40 µg/mL | ≥ 1 | – | ≥ 1 | – | 0.77 | –

S. pneumoniae D39V [4], partner 68.57 µg/mL, one replicate
Conditions | fitness
first compound 1.25 µg/mL | 0.969
first compound 2.5 µg/mL | 0.515
first compound 5 µg/mL | 0.861

C[C@@H]1O[C@@H]1P(=O)(O)O [Fosfomycin] + C[C@H]1COc2c(N3CCN(C)CC3)c(F)cc3c(=O)c(C(=O)O)cn1c23 [Levofloxacin]
Conditions | Bliss interaction score
B. subtilis 168 [1] | -0.0453
S. aureus DSM 20231 | 0.0688
S. aureus Newman | 0.0484
S. pneumoniae D39V [2] | 0.0613

fitness, B. subtilis 168 [3], one replicate
Conditions | first compound 1.562 µg/mL | first compound 3.124 µg/mL | first compound 6.248 µg/mL
partner 0.001 µg/mL | 0.864 | 0.738 | 0.599
partner 0.0078 µg/mL | 0.75 | 0.643 | 0.492

Conditions | fitness
B. subtilis 168 [3], first compound 1.562 µg/mL, partner 0.002 µg/mL | 0.717
B. subtilis 168 [3], first compound 1.562 µg/mL, partner 0.0039 µg/mL | 0.724
B. subtilis 168 [3], first compound 1.562 µg/mL, partner 0.0312 µg/mL | 0.0432
B. subtilis 168 [3], first compound 1.562 µg/mL, partner 0.0625 µg/mL | 0.0523
B. subtilis 168 [3], first compound 1.562 µg/mL, partner 0.125 µg/mL | 0.0479
B. subtilis 168 [3], first compound 3.124 µg/mL, partner 0.002 µg/mL | 0.629
B. subtilis 168 [3], first compound 3.124 µg/mL, partner 0.0039 µg/mL | 0.617
B. subtilis 168 [3], first compound 3.124 µg/mL, partner 0.0312 µg/mL | 0.0352
B. subtilis 168 [3], first compound 3.124 µg/mL, partner 0.0625 µg/mL | 0.0394
B. subtilis 168 [3], first compound 3.124 µg/mL, partner 0.125 µg/mL | 0.0439
B. subtilis 168 [3], first compound 6.248 µg/mL, partner 0.002 µg/mL | 0.525
B. subtilis 168 [3], first compound 6.248 µg/mL, partner 0.0039 µg/mL | 0.516
B. subtilis 168 [3], first compound 6.248 µg/mL, partner 0.0312 µg/mL | 0.0328
B. subtilis 168 [3], first compound 6.248 µg/mL, partner 0.0625 µg/mL | 0.0306
B. subtilis 168 [3], first compound 6.248 µg/mL, partner 0.125 µg/mL | 0.023
S. pneumoniae D39V [4], first compound 1.25 µg/mL, partner 0.1725 µg/mL | 0.953
S. pneumoniae D39V [4], first compound 1.25 µg/mL, partner 0.2 µg/mL | 0.936
S. pneumoniae D39V [4], first compound 1.25 µg/mL, partner 0.345 µg/mL | 0.86
S. pneumoniae D39V [4], first compound 1.25 µg/mL, partner 0.4 µg/mL | 0.857
S. pneumoniae D39V [4], first compound 1.25 µg/mL, partner 0.69 µg/mL | 0.633
S. pneumoniae D39V [4], first compound 2.5 µg/mL, partner 0.1725 µg/mL | 0.88
S. pneumoniae D39V [4], first compound 2.5 µg/mL, partner 0.2 µg/mL | 0.892
S. pneumoniae D39V [4], first compound 2.5 µg/mL, partner 0.345 µg/mL | 0.735
S. pneumoniae D39V [4], first compound 2.5 µg/mL, partner 0.4 µg/mL | 0.823
S. pneumoniae D39V [4], first compound 2.5 µg/mL, partner 0.69 µg/mL | 0.574
S. pneumoniae D39V [4], first compound 5 µg/mL, partner 0.1725 µg/mL | 0.821
S. pneumoniae D39V [4], first compound 5 µg/mL, partner 0.2 µg/mL | 0.794
S. pneumoniae D39V [4], first compound 5 µg/mL, partner 0.345 µg/mL | 0.728
S. pneumoniae D39V [4], first compound 5 µg/mL, partner 0.4 µg/mL | 0.697
S. pneumoniae D39V [4], first compound 5 µg/mL, partner 0.69 µg/mL | 0.536
S. pneumoniae D39V [4], first compound 5 µg/mL, partner 0.8 µg/mL | 0.341

Cc1ncc([N+](=O)[O-])n1CCO [Metronidazole] + CCC(C)C1C(=O)NC(=C)C(=O)NC(C(=O)NC(CSCC(C(=O)N1)NC(=O)/C(=C/C)/NC(=O)C(C(C)CC)N)C(=O)NC2C(SCC(NC(=O)CNC(=O)C3CCCN3C2=O)C(=O)NC(CCCCN)C(=O)NC4C(SCC(NC(=O)CNC(=O)C(NC(=O)C(NC(=O)C(NC(=O)CNC4=O)C)CC(C)C)CCSC)C(=O)NC(CC(=O)N)C(=O)NC(CCSC)C(=O)NC(CCCCN)C(=O)NC5C(SCC6C(=O)NC(C(=O)NC(CSC(C(C(=O)N6)NC(=O)C(NC5=O)C)C)C(=O)NC(CO)C(=O)NC(C(C)CC)C(=O)NC(CC7=CN=CN7)C(=O)NC(C(C)C)C(=O)NC(=C)C(=O)NC(CCCCN)C(=O)O)CC8=CN=CN8)C)C)C)CC(C)C [Nisin]
main component drawn
Conditions | Bliss interaction score
B. subtilis 168 [1] | 0.0914
S. aureus DSM 20231 | 0.153
S. aureus Newman | 0.0893
S. pneumoniae D39V [2] | 0.0647

fitness, B. subtilis 168 [3], one replicate, main component drawn
Conditions | first compound 0.625 µg/mL | first compound 1.25 µg/mL | first compound 2.5 µg/mL
partner 0.5 µg/mL | 0.831 | 0.806 | 0.795
partner 1 µg/mL | 0.838 | 0.797 | 0.803
partner 1.25 µg/mL | 0.909 | 0.939 | 0.91
partner 1.6 µg/mL | 0.796 | 0.809 | 0.755
partner 2 µg/mL | 0.571 | 0.528 | 0.537
partner 2.5 µg/mL | 0.366 | 0.666 | 0.616
partner 3.2 µg/mL | 0.0225 | 0.03 | 0.0513
partner 4 µg/mL | 0.61 | 0.534 | 0.333
partner 5 µg/mL | 0.0544 | 0.0891 | 0.149
partner 6.4 µg/mL | 0.0311 | 0.0509 | 0.0479
partner 8 µg/mL | 0.0261 | 0.0271 | 0.0234
partner 16 µg/mL | 0.0228 | 0.0235 | 0.015

S. pneumoniae D39V [4], main component drawn
Conditions | fitness
first compound 1.073 µg/mL, partner 3.2 µg/mL | 0.0352
first compound 1.073 µg/mL, partner 6.4 µg/mL | 0.0007
first compound 1.25 µg/mL, partner 0.4275 µg/mL | ≥ 1
first compound 1.25 µg/mL, partner 0.855 µg/mL | ≥ 1
first compound 1.25 µg/mL, partner 1.71 µg/mL | 0.127
first compound 2.145 µg/mL, partner 1.6 µg/mL | 0.809
first compound 2.145 µg/mL, partner 3.2 µg/mL | 0.0201
first compound 2.145 µg/mL, partner 6.4 µg/mL | 0
first compound 2.5 µg/mL, partner 0.4275 µg/mL | ≥ 1
first compound 2.5 µg/mL, partner 0.855 µg/mL | ≥ 1
first compound 2.5 µg/mL, partner 1.71 µg/mL | 0.121
first compound 4.29 µg/mL, partner 1.6 µg/mL | 0.747
first compound 4.29 µg/mL, partner 3.2 µg/mL | 0.0174
first compound 4.29 µg/mL, partner 6.4 µg/mL | 0
first compound 5 µg/mL, partner 0.4275 µg/mL | 0.968
first compound 5 µg/mL, partner 0.855 µg/mL | ≥ 1
first compound 5 µg/mL, partner 1.71 µg/mL | 0.1
